Measurements taken from ChEMBL document CHEMBL1201862, “PubChem BioAssay data set” (2004).
“And” between values parts separate entries of the source, which are not always exact repeats. Equal entries are not always repeated.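 The compound was tested at five concentrations on cells cultured in 96-well plates, with a 48-hour exposure period. The concentration for 50% growth inhibition is given as GI50.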 The source made the active and inactive calls. No stated cut-off is given here; in the data, active = GI50 up to about 1.1 µM and inactive = higher.

Experiments:
Assay in all cases: NCI-60 cell line screen, 48 h
OVCAR-3 = system: OVCAR-3
UACC-257 = system: UACC-257
NCI-H23 = system: NCI-H23
T47D = system: T47D
HCT-15 = system: HCT-15
NCI-H226 = system: NCI-H226
CCRF-CEM = system: CCRF-CEM
A549 = system: A549
SNB-19 = system: SNB-19
MOLT-4 = system: MOLT-4
MDA-N = system: MDA-N
K562 = system: K562
SF-295 = system: SF-295
MDA-MB-231 = system: MDA-MB-231
CAKI-1 = system: CAKI-1
ACHN = system: ACHN
IGROV-1 = system: IGROV-1
RPMI-8226 = system: RPMI-8226
COLO 205 = system: COLO 205
HL-60 = system: HL-60

| SMILES | GI50 (OVCAR-3) | GI50 (UACC-257) | GI50 (NCI-H23) | GI50 (T47D) | GI50 (HCT-15) [µM] | GI50 (NCI-H226) | GI50 (CCRF-CEM) | GI50 (A549) | GI50 (SNB-19) | GI50 (MOLT-4) | GI50 (MDA-N) | GI50 (K562) | GI50 (SF-295) | GI50 (MDA-MB-231) | GI50 (CAKI-1) | GI50 (ACHN) | GI50 (IGROV-1) | GI50 (RPMI-8226) | GI50 (COLO 205) | GI50 (HL-60) |
| --- | --- | --- | --- | --- | --- | --- | --- | --- | --- | --- | --- | --- | --- | --- | --- | --- | --- | --- | --- | --- |
| NCCSCc1ccccc1Cl | 28.9 µM (inactive) | 23.3 µM (inactive) | 30.1 µM (inactive) | 42.4 µM (inactive) | > 100 | > 100 µM (inactive) | 25.2 µM (inactive) | > 100 µM (inactive) | 80.4 µM (inactive) | 31 µM (inactive) | 30.5 µM (inactive) | 26.9 µM (inactive) | 41.1 µM (inactive) | 45.6 µM (inactive) | > 100 µM (inactive) | > 100 µM (inactive) | 51.4 µM (inactive) | – | – | – |
| O=C1C(c2c(O)[nH]c3ccc([N+](=O)[O-])cc23)=Nc2ccccc21 | > 100 µM (inactive) | > 100 µM (inactive) | > 100 µM (inactive) | > 100 µM (inactive) | > 100 | > 100 µM (inactive) | > 100 µM (inactive) | > 100 µM (inactive) | 49.8 µM (inactive) | 65.9 µM (inactive) | > 100 µM (inactive) | > 100 µM (inactive) | 43 µM (inactive) | 31.7 µM (inactive) | > 100 µM (inactive) | 40.5 µM (inactive) | 10 µM (inactive) | > 100 µM (inactive) | > 100 µM (inactive) | – |
| COc1ccc(C2Oc3c(OC)cc(CCCO)cc3C2CO)cc1OC (configuration not stated) | > 100 µM (inactive) | – | – | 10.9 µM (inactive) and 18.3 µM (inactive) | > 100 | > 100 µM (inactive) | – | 88.1 µM (inactive) and 80 µM (inactive) | > 100 µM (inactive) | 42.5 µM (inactive) and 26.9 µM (inactive) | 93.1 µM (inactive) and 71.4 µM (inactive) | 20.6 µM (inactive) and 38.5 µM (inactive) | 50.4 µM (inactive) and 70.8 µM (inactive) | 99.3 µM (inactive) | – | > 100 µM (inactive) and 76.6 µM (inactive) | > 100 µM (inactive) | – | > 100 µM (inactive) | 43.8 µM (inactive) and 65.3 µM (inactive) |
| Brc1ccc2c(c1)-c1nc3c(cc1CC2)CCc1ccc(Br)cc1-3 | > 100 µM (inactive) | > 100 µM (inactive) | > 100 µM (inactive) | > 100 µM (inactive) | > 100 | > 100 µM (inactive) | > 100 µM (inactive) | > 100 µM (inactive) | > 100 µM (inactive) | 42.4 µM (inactive) | > 100 µM (inactive) | 22.6 µM (inactive) | > 100 µM (inactive) | > 100 µM (inactive) | > 100 µM (inactive) | > 100 µM (inactive) | > 100 µM (inactive) | 0.637 µM (active) | > 100 µM (inactive) | – |
| O=c1c2sc3ccccc3sc=2c(=O)c2c(Cl)c(Cl)c(Cl)c(Cl)c12 | > 100 µM (inactive) | > 100 µM (inactive) | > 100 µM (inactive) | > 100 µM (inactive) | 39.7 | > 100 µM (inactive) | > 100 µM (inactive) | > 100 µM (inactive) | > 100 µM (inactive) | > 100 µM (inactive) | > 100 µM (inactive) | 34.8 µM (inactive) | > 100 µM (inactive) | > 100 µM (inactive) | > 100 µM (inactive) | > 100 µM (inactive) | > 100 µM (inactive) | 42 µM (inactive) | > 100 µM (inactive) | – |
| Cc1cccc2c(N)c3cccc(C(=O)NCC[N+](C)(C)Cc4ccccc4[N+](=O)[O-])c3nc12 | 18 µM (inactive) | 24.3 µM (inactive) | 5.22 µM (inactive) | 14.2 µM (inactive) | > 20.3 | 3.94 µM (inactive) | 1.78 µM (inactive) | 2.24 µM (inactive) | 14.1 µM (inactive) | 1.09 µM (active) | 16.9 µM (inactive) | 4.72 µM (inactive) | 6.32 µM (inactive) | 13.6 µM (inactive) | 5.71 µM (inactive) | 2.31 µM (inactive) | 5.78 µM (inactive) | 4.84 µM (inactive) | 9.02 µM (inactive) | – |
| CCOC(=O)C1(C/C=C/CBr)Cc2ccccc2C1=O (configuration not stated) | 2.17 µM (inactive) | 8.17 µM (inactive) | 2.02 µM (inactive) | 1.98 µM (inactive) | 2.24 | – | 0.796 µM (active) | 10.5 µM (inactive) | 5.45 µM (inactive) | 2.49 µM (inactive) | 2.2 µM (inactive) | 1.87 µM (inactive) | 8.57 µM (inactive) | 4.7 µM (inactive) | 2.42 µM (inactive) | 2.43 µM (inactive) | 2.7 µM (inactive) | 2.02 µM (inactive) | 3.21 µM (inactive) | 3.21 µM (inactive) |
| CCOC(=O)CC(c1ccccc1)C(C)(C(=O)OCC)C(=O)OCC (configuration not stated) | – | > 100 µM (inactive) | > 100 µM (inactive) | 78.2 µM (inactive) | > 100 | > 100 µM (inactive) | > 100 µM (inactive) | > 100 µM (inactive) | > 100 µM (inactive) | 76.9 µM (inactive) | > 10 µM (inactive) | > 100 µM (inactive) | > 100 µM (inactive) | > 100 µM (inactive) | > 100 µM (inactive) | > 100 µM (inactive) | > 100 µM (inactive) | – | > 100 µM (inactive) | > 100 µM (inactive) |
| COc1cc(C)c2c(=O)c3ccccc3n(C)c2c1 | 21.6 µM (inactive) | 30.3 µM (inactive) | 24.3 µM (inactive) | – | 22.3 | 26.7 µM (inactive) | 21.9 µM (inactive) | 38.5 µM (inactive) | 34.8 µM (inactive) | 29.2 µM (inactive) | 55.6 µM (inactive) | 17.1 µM (inactive) | 15.5 µM (inactive) | 25.6 µM (inactive) | 31.3 µM (inactive) | 24.3 µM (inactive) | 26.9 µM (inactive) | > 10 µM (inactive) | 26.9 µM (inactive) | 32.7 µM (inactive) |
| Cc1c2c(n(CCc3ccccc3)c1C)N(C)N=C(C#N)S2(=O)=O | > 100 µM (inactive) | > 100 µM (inactive) | > 100 µM (inactive) | > 100 µM (inactive) | > 100 | > 100 µM (inactive) | – | > 100 µM (inactive) | > 100 µM (inactive) | > 100 µM (inactive) | > 100 µM (inactive) | > 10 µM (inactive) | > 100 µM (inactive) | > 100 µM (inactive) | > 100 µM (inactive) | > 100 µM (inactive) | > 100 µM (inactive) | > 100 µM (inactive) | – | – |
| CCN(CC)CCCNC(=O)c1cc2cc(NC(=O)c3cc4cc([N+](=O)[O-])ccc4[nH]3)ccc2[nH]1 | 7.89 µM (inactive) | 29.9 µM (inactive) | > 100 µM (inactive) | > 100 µM (inactive) | > 100 | > 100 µM (inactive) | – | > 100 µM (inactive) | > 100 µM (inactive) | – | 70.1 µM (inactive) | > 100 µM (inactive) | 44.3 µM (inactive) | 54 µM (inactive) | > 100 µM (inactive) | > 100 µM (inactive) | > 100 µM (inactive) | 16.9 µM (inactive) | > 100 µM (inactive) | – |
| C(=N\c1ccc2c(c1)Cc1ccccc1-2)/c1ccccn1 | 61.7 µM (inactive) | 27.1 µM (inactive) | 74.8 µM (inactive) | 59.4 µM (inactive) | 48.3 | > 100 µM (inactive) | 23 µM (inactive) | > 100 µM (inactive) | > 100 µM (inactive) | 23 µM (inactive) | 28.9 µM (inactive) | 30.9 µM (inactive) | > 100 µM (inactive) | 68.2 µM (inactive) | > 100 µM (inactive) | > 100 µM (inactive) | > 100 µM (inactive) | > 10 µM (inactive) | – | – |
| O=C(N/N=C\c1cccc2ccccc12)Nc1cccc2ccccc12 | – | 27.3 µM (inactive) | 23.7 µM (inactive) | 65.9 µM (inactive) | 5.73 | 49.4 µM (inactive) | 18.2 µM (inactive) | 44.1 µM (inactive) | 16.4 µM (inactive) | 4.49 µM (inactive) | 3.84 µM (inactive) | 3.17 µM (inactive) | – | 16 µM (inactive) | 25.7 µM (inactive) | 23.2 µM (inactive) | 25.9 µM (inactive) | – | 16.9 µM (inactive) | 4.32 µM (inactive) |
| O=C(O)Cc1ccc2nc(COC(=O)c3ccccc3)sc2c1 | > 100 µM (inactive) | > 100 µM (inactive) | > 100 µM (inactive) | > 100 µM (inactive) | > 100 | – | < 0.01 µM (active) | > 100 µM (inactive) | > 100 µM (inactive) | – | > 100 µM (inactive) | > 100 µM (inactive) | > 100 µM (inactive) | > 100 µM (inactive) | > 100 µM (inactive) | > 100 µM (inactive) | > 100 µM (inactive) | > 100 µM (inactive) | > 100 µM (inactive) | – |
| Fc1cccc(F)c1C1SCc2nc3cc(Cl)ccc3n21 (configuration not stated) | 46 µM (inactive) | 32.8 µM (inactive) | 28.5 µM (inactive) | 31.2 µM (inactive) | 28.6 | – | 25.6 µM (inactive) | 31.3 µM (inactive) | 92.5 µM (inactive) | 14 µM (inactive) | 32.8 µM (inactive) | 35.1 µM (inactive) | 33.2 µM (inactive) | 55.1 µM (inactive) | 16.6 µM (inactive) | 31.3 µM (inactive) | > 42.9 µM (inactive) | 22.7 µM (inactive) | 17.9 µM (inactive) | 14 µM (inactive) |
| N#CC1Nc2ccccc2[C@@H](O)C1O (some centres not stated) | > 100 µM (inactive) | > 100 µM (inactive) | > 100 µM (inactive) | > 100 µM (inactive) | > 100 | – | > 100 µM (inactive) | > 100 µM (inactive) | – | > 100 µM (inactive) | > 100 µM (inactive) | > 100 µM (inactive) | > 100 µM (inactive) | > 100 µM (inactive) | > 100 µM (inactive) | > 100 µM (inactive) | > 100 µM (inactive) | > 100 µM (inactive) | > 100 µM (inactive) | > 100 µM (inactive) |
